Data on 17 compounds can be found in patent publication US20210022340A1, “USE OF PYRIDINE UREA COMPOUND HAVING SNAIL-KILLING ACTIVITY” (priority 2017, published 2021).

The LC50 is the concentration lethal to half of the exposed cells or organisms.

In brackets after ≈: the same amount, converted by molar mass. A value given as a limit tells only on which side of the number the result lay.

The test system of one data set is Oncomelania hupensis. Nature of the data set: Snail-killing activity against Oncomelania hupensis (immersion method). In kind it is in vivo. To be noted: 24 h, 24 hours of immersion, 25° C., linear interpolation, read-out: Oncomelania hupensis the LC50 values at the 24th hour. The protocol: (1): Snail-Killing Activity Against Oncomelania hupensis
Oncomelania hupensis was used as a tested sample and tested by the immersion method. Operation process: Weigh various samples accurately (compounds of any of Example 1 to Example 16), dissolve each sample with 0.2 mL of N,N-dimethylformamide, and dilute each sample to 0.2 mg/L of the drug solution with dechlorinated tap water. Put 30 snails in each beaker and pour 100 ml of the above-mentioned drug solution into each beaker. And cover the plastic gauze on the beaker to prevent the snails from climbing to the liquid surface. Place the above beakers accommodating the drug solution and snails in the incubator under the conditions which is at 25° C. constant temperature, and the humidity is maintained at 60%. and the light is fully. After 24 hours of immersion in the incubator, the drug solution is poured, and each sample is washed for 3 times by using water. Then, 15 mL of dechlorinated tap water is added to resuscitate each sample for 1 hour. Each sample is resuscitated for 1 hour again after 24 hours, and then activity of the snails is determined by knocking after 24 hours. Each sample was set to repeat 3 times. The tested concentrations were respectively 0.1 mg/L, 0.5 mg/L, 1 mg/L, 2 mg/L, 5 mg/L, and 10 mg/L. A linear interpolation method was used to draw a curve of the percentage of death at the 24th hour relative to the tested concentrations of the prepared compounds, thereby the LC50 values at the 24th hour are obtained.
A comparison was made with 0.2 mg/L of niclosamide (positive control) and water containing 0.2 mL/L of N,N-dimethylformamide (blank control).

The nature of a further data set: Acute toxicity to fish. To be noted: Danio rerio, in vivo, pH 7, 96 hour test cycle, 23±1° C., linear interpolation; read-out: Danio rerio the LC50 values at the 96th hour. The format is in vivo, Danio rerio. The protocol: (§1) (2): Study on Acute Toxicity to Fish
(§2) Tested substance: Compound of any of Example 1 to Example 16 of which tested concentrations were respectively 0 mg/L, 20 mg/L, 40 mg/L, 60 mg/L, 80 mg/L, and 100 mg/L.
(§3) Tested fish species: Danio rerio of which body length was 20±1 mm and weight was 0.3±0.1 g.
(§4) Test process: The tested fish was domesticated in continuous aerated diluted water for 7 days before the test. The water quality and lighting conditions during the domestication were consistent with the conditions during the test. Feeding was stopped 24 hours before the test. […] The water temperature during the test was constant at 23±1° C. The dissolved oxygen content during the test should be higher than 60% of the air saturation value, and the pH value was 7.0±0.2. The test cycle is 96 hours. The poisoning symptoms and mortality of the tested fish were observed and recorded at any time within 3 hours to 6 hours after starting the test, and then the poisoning symptoms and mortality of the tested fish at different concentrations were observed and recorded at 24th hour, 48th hour, 72th hour, and 96th hour. The criterion for judging dead fish is to knock the tail of the fish with glasses. If the fish had no action, it is judged that the fish was dead.
(§5) A linear interpolation method was used to draw the curve of the percentage of death relative to the tested concentrations of the compound prepared in Example 4 at 96 hour, thereby the LC50 values at 96th hour are obtained, which was treated with water as a blank control. The LC50 value of the other compound at 96th hour was obtained in this way.

The test system of data set [1] is Danio rerio. Kind of data set: Acute toxicity to fish. The format is in vivo. To be noted: applied for 1 hour.
Data set [2] has as its system Danio rerio. Kind of data set: Acute toxicity to fish. The format is in vivo. To be noted: 96 hour test cycle, 23±1° C., linear interpolation. The protocol: as §1, §2, §3, §4, §5

Regarding `O=C(Nc1ccc([N+](=O)[O-])cc1)Nc1cccnc1` [Compound 10], the LC50 with Oncomelania hupensis was 3.8 µg/mL (≈ 14.7 µM). In the data set “Acute toxicity to fish”, the LC50 at 96 h was over 100 µg/mL.

As to `O=C(Nc1cccnc1)Nc1ccc(F)cc1F` [Compound 1], the 50% lethal concentration (LC50) with Oncomelania hupensis worked out at 5 µg/mL (≈ 20.1 µM). For the same compound, in the data set “Acute toxicity to fish”, the LC50 at 96 h was over 100 µg/mL.

Regarding `O=C(Nc1ccc(Cl)cc1)Nc1cccnc1` [Compound 14], the LC50 in the data set on Oncomelania hupensis was about 0.5 µg/mL (≈ 2.02 µM). For the same compound, the LC50 at 96 h in the data set “Acute toxicity to fish” turned out to be 15 µg/mL (≈ 60.6 µM).

As to `O=C(Nc1cccnc1)Nc1ccc(Cl)cc1Cl` [Compound 8], in the data set on Oncomelania hupensis, the median lethal concentration (LC50) amounted to 5.8 µg/mL (≈ 20.6 µM). For the same compound, in the data set “Acute toxicity to fish”, the LC50 at 96 h is over 100 µg/mL.

As for `O=C(Nc1cccnc1)Nc1cccc(Cl)c1` [Compound 4], in the data set on Oncomelania hupensis, the LC50 was 5.8 µg/mL (≈ 23.4 µM). Besides, the median lethal concentration (LC50) at 96 h in “Acute toxicity to fish” was over 100 µg/mL.

As for `O=C(Nc1ccc(Br)cc1)Nc1cccnc1` [Compound 13], the LC50 in the data set with Oncomelania hupensis was about 0.5 µg/mL (≈ 1.71 µM). The LC50 at 96 h in the data set “Acute toxicity to fish” is 15 µg/mL (≈ 51.3 µM).

With `O=C(Nc1cccnc1)Nc1ccccc1Cl` [Compound 6], in the data set on Oncomelania hupensis, the 50% lethal concentration (LC50) worked out at 9.2 µg/mL (≈ 37.1 µM). Besides, the LC50 at 96 h in the data set “Acute toxicity to fish” was over 100 µg/mL.

For the compound `O=C(Nc1cccnc1)Nc1ccc(F)cc1C(F)(F)F` [Compound 5], the 50% lethal concentration (LC50) in the data set with Oncomelania hupensis stood at 8.9 µg/mL (≈ 29.7 µM). Moreover, the LC50 at 96 h in “Acute toxicity to fish” was over 100 µg/mL.

Consider `O=C(Nc1ccc([N+](=O)[O-])cc1Cl)c1cc(Cl)ccc1O` [niclosamide, reference compound], for which, in the data set with Danio rerio [1], the fish death entry is “all fish is resulted in almost death”. The 50% lethal concentration (LC50) in the data set on Oncomelania hupensis came to 0.6 µg/mL (≈ 1.83 µM). Also, in the data set on Danio rerio [2], the “Danio rerio the LC50 values at the 96th hour” value is given as 0.2 mg/L. For the same compound, the LC50 at 96 h in the data set “Acute toxicity to fish” amounted to 0.21 µg/mL (≈ 0.642 µM).

For the compound `Cc1ccccc1NC(=O)Nc1cccnc1` [Compound 15], the LC50 in the data set on Oncomelania hupensis is 7.2 µg/mL (≈ 31.7 µM). Besides, the LC50 at 96 h in “Acute toxicity to fish” is over 100 µg/mL.

As to `Cc1ccc(NC(=O)Nc2cccnc2)cc1` [Compound 16], the LC50 in the data set with Oncomelania hupensis is 8.1 µg/mL (≈ 35.6 µM). Besides, in “Acute toxicity to fish”, the LC50 at 96 h was over 100 µg/mL.

`O=C(Nc1ccc(OC(F)(F)F)cc1)Nc1cccnc1` [Compound 2]: in the data set with Oncomelania hupensis, the median lethal concentration (LC50) is 3.5 µg/mL (≈ 11.8 µM). In addition, the LC50 at 96 h in the data set “Acute toxicity to fish” is over 100 µg/mL.

Regarding `O=C(Nc1cccnc1)Nc1ccccc1F` [Compound 3], the LC50 with Oncomelania hupensis amounted to 4.8 µg/mL (≈ 20.8 µM). The LC50 at 96 h in the data set “Acute toxicity to fish” was over 100 µg/mL.

For the compound `O=C(Nc1cccnc1)Nc1cc(F)cc(F)c1` [Compound 9], in the data set with Oncomelania hupensis, the LC50 was determined as 4.3 µg/mL (≈ 17.3 µM). Besides, the LC50 at 96 h in the data set “Acute toxicity to fish” was over 100 µg/mL.

Regarding `O=C(Nc1cccnc1)Nc1cccc(F)c1` [Compound 11], the 50% lethal concentration (LC50) with Oncomelania hupensis stood at 4.9 µg/mL (≈ 21.2 µM). Besides, the LC50 at 96 h in “Acute toxicity to fish” is over 100 µg/mL.

With `Cc1cccc(NC(=O)Nc2cccnc2)c1` [Compound 12], the LC50 with Oncomelania hupensis was determined as 8.2 µg/mL (≈ 36.1 µM). Also, in “Acute toxicity to fish”, the LC50 at 96 h is over 100 µg/mL.

As for `O=C(Nc1cccnc1)Nc1ccc(Cl)cc1C(F)(F)F` [Compound 7], the LC50 with Oncomelania hupensis amounted to 6.7 µg/mL (≈ 21.2 µM). The median lethal concentration (LC50) at 96 h in “Acute toxicity to fish” is over 100 µg/mL.
